Legend:
A20 gene = test: ChIP of Pol II and Spt5 occupancy of the A20 gene; assay type: cell-based, human; settings: for TNFα induction of Pol II and Spt5 levels at the A20 loci: TNFα+ 30 minutes; for Spt5 and Pol II occupancy at 3 loci of the A20 gene: basal conditions (TNFα-)
Experimental: Chromatin immunoprecipitation (ChIP)—HeLa cells were treated with DMSO (vehicle control) or the indicated compound (50 μM; 60 minutes), followed by TNF-α induction (30 minutes) in 100-mm plates. Following, the cells were cross-linked with 1% formaldehyde for 10 minutes at room temperature, and fixation was terminated by adding 1/20 volume of 2.5 M glycine.
Chromatin extraction and immunoprecipitation were carried out as previously described in Diamant et al., 2012. For immunoprecipitation (IP), 3 μg of anti-RNA polymerase II (ab817, Abcam) anti-Spt5 [previously described in Amir-Zilberstein et al., 2007] or control IgG (SC-2025, Santa Cruz Biotechnology) was added to 1 ml of the soluble chromatin DNA. IP and input samples were analyzed by qPCR as described above.
To further examine the impact of the identified SPIs on chromatin occupancy of Spt5 and Pol II, chromatin immunoprecipitation (ChIP) in the presence of DMSO, SPI-21 or SP-18 followed by 30 minutes TNFα treatment was performed. […] This finding is consistent with the increase in transcription under basal conditions exerted by SPI-21 but not by SPI-18 (FIG. 2A). Upon TNFα induction the levels of Pol II and Spt5 were dramatically elevated and this induction was diminished by both SPI-21 and SPI-18 at all the analyzed loci (FIG. 3G, TNFα+). This finding is consistent with the decrease in transcription under TNFα-induced conditions of both SPI-21 and SIP-18 (FIG. 3A).

[1] = biological target: T1, Spt5-Pol II interaction (NGN and KOW 1&2 of Spt5, coiled-coil domain of Rpb1) (Homo sapiens, UniProt P24928); test: Split-Renilla luciferase (RL) complementation assay of Spt5-Pol II interaction; assay type: binding
T1 construct: the region spanning NGN and KOW 1&2 of Spt5 and the coiled-coil (CC) domain of Rpb1; the coiled-coil (CC) domain of Rpb1, the large subunit of Pol II, were fused to N-RL and C-RL, respectively; made in house; host or cells: E. coli (pRSFDuet double expression plasmid); bacterial cell lysate used unpurified
Excerpt: Plasmid construction—The mammalian expression plasmids RSV-AC/AN Renilla luciferase (pRL-AC/AN), encoding the N-terminal amino acid residues 1-229 or the C-terminus 230-311 of the Renilla luciferase (RL) were previously described in Ashkenazi et al., 2016; and Ashkenazi et al., 2017. The split-Renilla luciferase fusion plasmids were constructed by two-step PCR using the pRL-AC or pRL-AN as backbones and plasmids encoding the region spanning NGN and KOW 1&2 of human Spt5 (SEQ ID NOs: 1-3) or the coiled-coil (CC) domain of human Rpb1 (SEQ ID NOs: 4-6), respectively, as insert sources. For bacterial expression of the split-RL fusion proteins the double expression plasmid pRSFDuet was used. All constructs were verified by sequencing.
High-throughput drug screening (HTS)—About 100,000 compounds [from MEGxp library: Pure natural compounds from plants (see Table 1 hereinbelow) were screened for their effect on Spt5-Pol II interaction (a schematic representation of the assay is shown in FIG. 1B). […] Compounds that diminished the luminescence activity by >30% were subjected for an additional screen with a bacterial lysate expressing recombinant full-length RL (diluted 1: 500 in phosphate buffer) that served as a control for false-positive compounds that inhibit the RL enzymatic activity itself (Ashkenazi et al., 2017). […]

T1 sequence (P24928 8-370 limits assumed): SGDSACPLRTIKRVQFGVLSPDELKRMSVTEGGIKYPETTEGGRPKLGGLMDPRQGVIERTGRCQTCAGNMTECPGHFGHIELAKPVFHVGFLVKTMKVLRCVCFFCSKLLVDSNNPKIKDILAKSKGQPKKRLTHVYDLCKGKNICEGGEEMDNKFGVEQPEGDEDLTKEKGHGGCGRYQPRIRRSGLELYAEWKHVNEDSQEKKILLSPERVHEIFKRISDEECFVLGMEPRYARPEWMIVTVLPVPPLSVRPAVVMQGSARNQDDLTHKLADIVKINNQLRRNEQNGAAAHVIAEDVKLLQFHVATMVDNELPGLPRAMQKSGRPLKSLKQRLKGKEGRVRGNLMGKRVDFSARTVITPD

## Nc1ccccc1SC(CC(=O)c1cccs1)c1cccs1 (stereo not drawn) [SPI-18]
A20 gene
  TNFα induction of Pol II and Spt5 levels at the A20 loci: diminished
  Spt5 and Pol II occupancy at 3 loci of the A20 gene: unchanged
[1]
  IC50: 33 µM

## COc1ccc(C=CC(=O)c2cc(O)ccc2O)cc1 [SPI-21]
A20 gene
  TNFα induction of Pol II and Spt5 levels at the A20 loci: diminished
  Spt5 and Pol II occupancy at 3 loci of the A20 gene: moderate but significant enhancement
[1]
  IC50: 25 µM
